For 1 molecule, IC50 results are on record in article PMC4872774, “DYRK1B as therapeutic target in Hedgehog/GLI-dependent cancer cells with Smoothened inhibitor resistance” (Oncotarget, 2016).

The assay addresses Dual-Specificity-Tyrosine-Phosphorylation-Regulated Kinase 1B (DYRK1B) (Homo sapiens, UniProt Q9Y463). Nature of the assay: radiometric […]-ATP kinase assay with recombinant DYRK1B and DYRKtide substrate ([…] ATP). In kind it is biochemical.

Chain of Dual-Specificity-Tyrosine-Phosphorylation-Regulated Kinase 1B (DYRK1B) (Q9Y463 whole entry): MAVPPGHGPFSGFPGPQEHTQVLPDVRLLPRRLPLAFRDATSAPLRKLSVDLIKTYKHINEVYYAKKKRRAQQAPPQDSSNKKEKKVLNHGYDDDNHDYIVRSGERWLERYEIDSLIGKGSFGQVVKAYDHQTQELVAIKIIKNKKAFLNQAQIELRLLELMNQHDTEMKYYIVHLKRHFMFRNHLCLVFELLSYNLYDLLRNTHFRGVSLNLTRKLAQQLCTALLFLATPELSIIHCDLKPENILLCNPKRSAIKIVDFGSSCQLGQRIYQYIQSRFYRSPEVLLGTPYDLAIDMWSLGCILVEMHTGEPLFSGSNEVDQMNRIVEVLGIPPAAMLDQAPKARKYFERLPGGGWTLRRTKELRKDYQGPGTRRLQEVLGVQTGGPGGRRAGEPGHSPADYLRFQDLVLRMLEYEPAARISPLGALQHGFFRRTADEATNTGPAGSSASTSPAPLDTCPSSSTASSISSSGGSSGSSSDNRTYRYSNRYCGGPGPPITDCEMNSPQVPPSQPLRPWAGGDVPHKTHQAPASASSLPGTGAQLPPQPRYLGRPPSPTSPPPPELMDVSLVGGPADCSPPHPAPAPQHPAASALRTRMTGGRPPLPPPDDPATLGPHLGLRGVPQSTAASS

On to `O=C(Nc1nc2cc(C(F)(F)F)ccc2[nH]1)c1csc(-c2ccc3c(c2)CCO3)n1` [DYRKi], for which the IC50 was found to be 0.09 µM.

As a reminder, the IC50 is the concentration that inhibits the measured activity by half.
